Assay results reported in US8912125B2, “Control of trifluralin-resistant weeds with dithiopyr” (Dow AgroSciences, LLC., priority 2010, dated 2014).

Assays:
[1] = test system: ryegrass biotype 1252.6 (with trifluralin resistance); assay: Pre-emergence (simulated IBS) pot test, % survival of ryegrass biotype 1252.6; format: in vivo; details: 5 weeks after herbicide application
Procedure: (§1) Five ryegrass biotypes with varying degrees of resistance to trifluralin (1251, 1216.1, 1252.6, 1252.2 and 1145.4) and two non-resistant biotypes (SLR4 and 1261.1) were tested. Dithiopyr was applied using a simulated incorporated by sowing (IBS) system for ryegrass and wheat.
(§2) Ryegrass: A set volume of seeds (50 seeds approx) were placed onto the surface of sandy potting soil in 0.55 L polyethylene pots. Dithiopyr was sprayed directly onto the ryegrass seed soil surface at rates of 250, 500 and 1000 grams active ingredient per hectare (g ai/ha). The seed and soil were then covered with a soil mixture to a depth of 5 mm (the soil mixture included 385 L peatmoss, 615 L coarse sand, 1024 g Ag. lime, 564 g hydrated lime, and 3.7 Kg Osmocote® Exact™ (Everris International B.V.; Geldermalsen, The Netherlands) with a pH of 6.3).
(§3) Herbicide application was performed using a laboratory boom sprayer equipped with T-jet fan nozzles at a speed of 1 ms^−1. Output from the sprayer was calibrated at 110 L ha^−1 at a pressure of 250 kPa. Using this testing procedure, volatilization losses were minimized by the immediate and even incorporation of each herbicide. The experiment was established as a randomized block design with three replications and was conducted outdoors during mid winter (July-August).
(§4) Herbicide effects on wheat and ryegrass seedlings were measured 5 weeks after spraying. Seedlings were considered emerged if they had reached the 2-leaf stage at this time. Survival % was recorded by comparing the surviving number of 2-3 leaved seedlings in the sprayed treatments to the […] (Tables 1 and 2).

[2] = test system: Correll wheat; assay: Crop safety on wheat, pre-emergence (simulated IBS) pot test, % dry weight and % survival; format: in vivo, wheat (var. Correll); details: 5 weeks after application
Procedure: as §1
Wheat: Ten wheat seeds (var. Correll) were buried 1 cm deep. The herbicides were sprayed onto the soil surface and then the herbicide covered with another 5 mm of soil. This system of seed separation ensured crop selectivity
as §3, §4
In addition, wheat biomass was recorded by harvesting the plants and measuring dry weight to indicate crop safety. The dry weights from the treated plants were compared to the weight of untreated wheat and the percentage biomass calculated (Table 2).

[3] = test system: ryegrass biotype 1251 (with trifluralin resistance); assay: Pre-emergence (simulated IBS) pot test, % survival of ryegrass biotype 1251; format: in vivo; details: 5 weeks after herbicide application
Procedure: as §1, §2, §3, §4

[4] = test system: ryegrass biotype 1216.1 (with trifluralin resistance); assay: Pre-emergence (simulated IBS) pot test, % survival of ryegrass biotype 1216.1; format: in vivo; details: 5 weeks after herbicide application
Procedure: as §1, §2, §3, §4

[5] = test system: ryegrass biotype SLR4 (without trifluralin resistance); assay: Pre-emergence (simulated IBS) pot test, % survival of ryegrass biotype SLR4; format: in vivo; details: 5 weeks after herbicide application
Procedure: as §1, §2, §3, §4

[6] = test system: ryegrass biotype 1252.2 (with trifluralin resistance); assay: Pre-emergence (simulated IBS) pot test, % survival of ryegrass biotype 1252.2; format: in vivo; details: 5 weeks after herbicide application
Procedure: as §1, §2, §3, §4

[7] = test system: ryegrass biotype 1261.1 (without trifluralin resistance); assay: Pre-emergence (simulated IBS) pot test, % survival of ryegrass biotype 1261.1; format: in vivo; details: 5 weeks after herbicide application
Procedure: as §1, §2, §3, §4

[8] = test system: ryegrass biotype 1145.4 (with trifluralin resistance); assay: Pre-emergence (simulated IBS) pot test, % survival of ryegrass biotype 1145.4; format: in vivo; details: 5 weeks after herbicide application
Procedure: as §1, §2, §3, §4

SMILES: CSC(=O)c1c(C(F)F)nc(C(F)(F)F)c(C(=O)SC)c1CC(C)C [Dithiopyr, S,S′-dimethyl 2-(difluoromethyl)-4-(2-methylpropyl)-6-(trifluoromethyl)-3,5-pyridinedicarbothioate]
- % survival of ryegrass, Mean ([1]; 250 g ai/ha): 0%
- % survival of ryegrass, Mean ([1]; 500 g ai/ha): 0%
- % survival of ryegrass, Mean ([1]; 1000 g ai/ha): 0%
- Survival (%) Mean ([2]; 250 g ai/ha): 82.2%
- Survival (%) Mean ([2]; 500 g ai/ha): 60.0%
- Survival (%) Mean ([2]; 1000 g ai/ha): 28.9%
- % survival of ryegrass, Mean ([3]; 250 g ai/ha): 0%
- % survival of ryegrass, Mean ([3]; 500 g ai/ha): 0%
- % survival of ryegrass, Mean ([3]; 1000 g ai/ha): 0%
- % survival of ryegrass, Mean ([4]; 250 g ai/ha): 0%
- % survival of ryegrass, Mean ([4]; 500 g ai/ha): 0%
- % survival of ryegrass, Mean ([4]; 1000 g ai/ha): 0%
- % survival of ryegrass, Mean ([5]; 250 g ai/ha): 0%
- % survival of ryegrass, Mean ([5]; 500 g ai/ha): 0%
- % survival of ryegrass, Mean ([5]; 1000 g ai/ha): 0%
- % survival of ryegrass, Mean ([6]; 250 g ai/ha): 0%
- % survival of ryegrass, Mean ([6]; 500 g ai/ha): 0%
- % survival of ryegrass, Mean ([6]; 1000 g ai/ha): 0%
- % survival of ryegrass, Mean ([7]; 250 g ai/ha): 0%
- % survival of ryegrass, Mean ([7]; 500 g ai/ha): 0%
- % survival of ryegrass, Mean ([7]; 1000 g ai/ha): 0%
- % survival of ryegrass, Mean ([8]; 250 g ai/ha): 0%
- % survival of ryegrass, Mean ([8]; 500 g ai/ha): 0%
- % survival of ryegrass, Mean ([8]; 1000 g ai/ha): 0%

SMILES: CCCN(CCC)c1c([N+](=O)[O-])cc(C(F)(F)F)cc1[N+](=O)[O-] [Trifluralin, 2,6-dinitro-N,N-dipropyl-4-(trifluoromethyl)benzenamine]
- % survival of ryegrass, Mean ([1]; 250 g ai/ha): 33.8%
- % survival of ryegrass, Mean ([1]; 500 g ai/ha): 13.1%
- % survival of ryegrass, Mean ([1]; 1000 g ai/ha): 26.3%
- % survival of ryegrass, Mean ([3]; 250 g ai/ha): 97.7%
- % survival of ryegrass, Mean ([3]; 500 g ai/ha): 68.2%
- % survival of ryegrass, Mean ([3]; 1000 g ai/ha): 27.3%
- % survival of ryegrass, Mean ([4]; 250 g ai/ha): 40.4%
- % survival of ryegrass, Mean ([4]; 500 g ai/ha): 19.1%
- % survival of ryegrass, Mean ([4]; 1000 g ai/ha): 9%
- % survival of ryegrass, Mean ([5]; 250 g ai/ha): 2.9%
- % survival of ryegrass, Mean ([5]; 500 g ai/ha): 0%
- % survival of ryegrass, Mean ([5]; 1000 g ai/ha): 0%
- % survival of ryegrass, Mean ([6]; 250 g ai/ha): 29.1%
- % survival of ryegrass, Mean ([6]; 500 g ai/ha): 13.9%
- % survival of ryegrass, Mean ([6]; 1000 g ai/ha): 3.8%
- % survival of ryegrass, Mean ([7]; 250 g ai/ha): 5.6%
- % survival of ryegrass, Mean ([7]; 500 g ai/ha): 0%
- % survival of ryegrass, Mean ([7]; 1000 g ai/ha): 1.1%
- % survival of ryegrass, Mean ([8]; 250 g ai/ha): 100%
- % survival of ryegrass, Mean ([8]; 500 g ai/ha): 100%
- % survival of ryegrass, Mean ([8]; 1000 g ai/ha): 14.1%
